Measured values reported in patent publication US12410178B2, “Small cationic ortho-5,15-di-heteroaryl-porphyrin derivatives and their applications in photoinactivation of microorganisms” (UNIVERSIDADE DE COIMBRA, priority 2019, dated 2025).

Tests used:
[1] = tested on: Escherichia coli ATCC 25922; experiment: PDI phototoxicity towards planktonic bacteria (CFU); format: cell-based
Protocol: (§1) Phototoxicity towards bacteria was evaluated in vitro. Assays were performed with the following bacteria: Escherichia coli ATCC 25922, Pseudomonas aeruginosa ATCC 27853 and Staphylococcus aureus ATCC 29213. Further assay were performed with clinical antibiotic-resistant strains from the Centro Hospitalar da Universidade de Coimbra, namely Staphylococcus aureus methicillin-resistant (MRSA) strain Sa1CHUC recovered from the skin of a burnt patient (resistant to all beta-lactamic antibiotics), and Acinetobacter baumannii 141HUC isolated from an exudate of a burn wound and highly resistant to all beta-lactamics (penicillins, cephalosporins, monobactams and carbapenems), quinolones and the aminoglycosides gentamicin and netilmicin. The planktonic bacteria cells were cultured in Mueller Hinton (MH) agar (Sigma Aldrich) at 37° C. overnight. Cell density was adjusted to the 0.5 McFarland standard in sterile water, which corresponds to approximately 1.5×10^8 CFU/mL. For PDI experiments cell suspensions of bacteria were incubated with various concentrations of the photosensitizers for 1 h, in the dark, at room temperature, using a 96 well plate. Then, the plate was illuminated with a blue light LED (420 nm, 4 mJ/s). Cells incubated with photosensitizers in the dark were covered with aluminum foil for the same time as the PDI groups (1 h). After illumination (or dark incubation) samples were shaken, diluted in PBS and mixed. Aliquots were taken from each well and streaked in MH agar in duplicate for CFU determination and incubated for 37° C./18-24 h in the dark. After 24 h, the colonies were counted and CFU determined. The experiments were performed in triplicate. Statistical analysis was performed with GraphPad Prism 6.
(§2) This example describes the evaluation of in vitro phototoxicity against Gram-positive and Gram-negative bacteria of the cationic ortho-5,15-di-heteroaryl porphyrin with Formula (IIa). The phototoxicity was measured according to the description in the Materials and Methods section. […] There is a dose-phototoxicity response of the test compound relative to the non-treated control. FIG. 8 illustrates the CFU reduction as a function of photosensitizer concentration for the light dose of 1.36 J/cm^2 at 415 nm.

[2] = tested on: Pseudomonas aeruginosa ATCC 27853; experiment: as above; format: cell-based; details: 60 min incubation
Protocol: as §1, §2

[3] = tested on: Staphylococcus aureus ATCC 29213; experiment: as above; format: cell-based
Protocol: as §1, §2

[4] = tested on: HDFn neonatal human dermal fibroblast; experiment: Toxicity and phototoxicity towards human cell lines (MTT); format: cell-based
Protocol: (§3) Toxicity towards human cell lines was evaluated in vitro using the 3-(4,5-dimethylthiazol-2-yl)2,5-diphenyl tetrazolium bromide (MTT, from Sigma Aldrich) assay to estimate the viability of cells after appropriate treatment. After cell attachment, photosensitizer solutions in PBS at concentrations between 0 to 10 μM were added to the cell cultures and incubated for 1 h at 37° C. in the dark. After illumination with the Biotable® or after the equivalent time in control experiments, MTT dissolved at 5 mg/ml in PBS was added to each well (final concentration 0.5 mg/ml), and the microplates were further incubated for 3-4 hours. Medium were then discarded and 100 μl of methanol were added to the cultures and mixed thoroughly to dissolve the dark blue crystals of formazan. Formazan quantification was performed using an automatic microplate reader (Multiskan Go Thermo) by absorbance measurements at 570 nm. Each experiment was repeated three times. Data were expressed as mean absorbance value of six samples and standard error of the mean.
(§4) This example describes the evaluation of in vitro toxicity against HDFn neonatal human dermal fibroblast and HaCaT immortalized human keratinocyte cell lines of a cationic ortho-5,15-di-heteroaryl porphyrin with Formula (IIa). Both types of cells were grown in DMEM (BioTech) with addition of 10% fetal bovine serum (Cultilab—Campinas, SP, Brazil). Before the experiments, the cells were removed by trypsinization, washed with PBS and maintained in a humidified atmosphere at 37° C. and 5% CO2. The cells were incubated in the dark with the photosensitizer of Formula (IIa) in PBS for 30 min at concentrations up to 10 μM, and then illuminated with the Biotable® to deliver 5 J/cm^2 in the wavelength range between 400-700 nm. After exposure to light, the cells were washed with fresh medium and plates were returned to the incubator for 24 h. Cell viability was determined by a MTT assay performed 24 h after irradiation. The cells in the control experiment remained in the dark for the time of the illumination. […] Exposure to a light dose of 5 J/cm^2 led only to a 20% decrease in the viability of fibroblasts at the highest drug dose tested: 10 μM.

[5] = tested on: HaCaT immortalized human keratinocyte; experiment: as above; format: cell-based
Protocol: as §3, §4

[6] = n-Octanol:PBS partition ratio (modified shake-flask); format: physicochemical; details: equal volumes
Source text: n-Octanol:PBS partition ratio: a modification of the shake-flask method was employed to determine the equilibrium concentrations of the photosensitizer in n-octanol and in phosphate-buffered saline (PBS) mixed in equal volumes, using the typical fluorescence band of the same photosensitizer and the ratio of the fluorescences after dilution by the same factor with dimethylsulfoxide.

[7] = Photobleaching / photodecomposition experiments; format: physicochemical
Protocol: Photobleaching experiments: Photodecomposition experiments were made dissolving the photosensitizers in water with 9% dimethylsulfoxide. A volume of 3 mL was placed in a cuvette and irradiated ensuring that all the light hits the solution. The porphyrins were irradiated using a LED light with emission at 415 nm and an effective output power of 0.27 mW. Photodecomposition quantum yield (Φpd) is defined as the ratio between the rate of disappearance of photosensitizer molecules vd and the rate of absorption of photons vp.
The intensity of its longest wavelength absorption band at 622 nm decreased by less than ΔA=0.001 after 15,000 second of illumination corresponding to an effective absorption of ca. 4 J. This places an upper limit of 0.001 to the photodecomposition quantum yield.

Solubility in water = format: physicochemical
[8] = 1 μM, planktonic, 1.36 J/cm^2 at 415 nm, 60 min incubation
[9] = nanomolar concentrations, 60 min incubation, low light doses

In the case of `Cn1cc[n+](C)c1C1=C2C=CC3=[N+]2[Zn@]24[n]5c(ccc51)C=C1C=CC(=[N+]12)C(c1n(C)cc[n+]1C)=c1ccc([n]14)=C3` [Formula (IIa), 5,15-bis(1,3-dimethylimidazol-2-yl)porphyrinate zinc (II) diiodide], the “reduction of the number of bacterial CFU” value ([1]; 1 μM, 1.36 J/cm^2 at 415 nm) is reported as 7 orders of magnitude, the “log CFU at 1 μM, E. Coli” value [1, 8] is reported as 7 and the “CFU reduction (in words)” value [1, 9] is reported as “dramatic decrease in CFU”. The “log CFU at 1 μM, P. Aerogirosa” value ([2]; 1 μM, planktonic, 1.36 J/cm^2 at 415 nm) was 3, the “CFU reduction (in words)” value ([2]; nanomolar concentrations, low light doses) was “dramatic decrease in CFU” and the “reduction of the number of bacterial CFU” value ([3]; 1 μM, 1.36 J/cm^2 at 415 nm) was 7 orders of magnitude. The “log CFU at 1 μM, S. Aureus” value [3, 8] was 7, the “CFU reduction (in words)” value [3, 9] was “dramatic decrease in CFU” and the “Dark cytotoxicity, cell viability” value ([4]; 10 μM, in the dark) was “did not show a statistically significant reduction of cell viability”. For the same molecule, the “decrease in the viability” value ([4]; 10 μM, light dose 5 J/cm^2) was 20%, the “Survival fraction at 10 μM, Fibroblast” value ([4]; light dose 5 J/cm^2) was 100% and the “Dark cytotoxicity, cell viability” value ([5]; 10 μM, in the dark) was “did not show a statistically significant reduction of cell viability”. The “Survival fraction at 10 μM, Keratinocytes” value ([5]; light dose 5 J/cm^2) was 80%, the “log Pow” value [6] was −1.16 and the photodecomposition quantum yield ([7]; LED 415 nm, water with 9% dimethylsulfoxide) was at most 0.001. The “decrease ΔA of longest wavelength absorption band at 622 nm” value ([7]; after 15,000 second of illumination, effective absorption ca. 4 J) was under 0.001 and the solubility in water (Solubility in water) was “soluble in water”.
